{
  "source": "paper PMC7911516",
  "about": "“Investigation of the Factors Responsible for the Poor Oral Bioavailability of Acacetin in Rats: Physicochemical and Biopharmaceutical Aspects” (Pharmaceutics, 2021)",
  "key": {"[1]": {"experiment": "Oral pharmacokinetic study in rats", "assay_type": "in vivo", "method": "(§1) The rats were fasted overnight before the experiment and anesthetized using an intramuscular injection of zoletil at 20 mg/kg. The femoral artery and vein were cannulated with a polyethylene tube (Clay Adams, Parsippany, NJ, USA). Acacetin (dissolved in a vehicle composed of DMSO, ethanol, and PEG400 (10:5:85, v/v/v)) was administered intravenously (10 mg/kg) or orally (100 mg/kg) to rats. Approximately 250 μL of blood was collected via the femoral artery at 0, 2, 5, 15, 30, 45, 60, 120, and 180 min after intravenous administration and at 0, 2, 5, 15, 30, 45, 60, 90, 120, and 180 min after oral administration. The cannula was flushed with heparin (20 IU/mL in saline) at each time point to prevent blood clotting. Following centrifugation of the blood sample at 8000× g and 4 °C for 2 min, 120 μL of plasma was obtained. Urine was collected at 1-h intervals in an ice-cold container over 24 h. After urine collection at 24 h, each rat was sacrificed by cervical dislocation; the entire GI tract (including its contents and feces) was excised, transferred into a beaker containing 100 mL methanol, and cut into small pieces using scissors. After manual stirring with a glass rod for 1 min, a 50-μL aliquot of the supernatant was collected. The plasma, urine (Ae24h), and GI tract (GI24h) samples were stored at −80 °C until further LC-MS/MS analysis.\nA noncompartmental analysis (WinNonlin ver. 3.1; Certara USA Inc., Princeton, NJ, USA) was performed to determine the following pharmacokinetic parameters: the AUCinf, area under plasma concentration versus time curve from time zero to the last sampling time (AUClast), t1/2, total body clearance (CL), apparent volume of distribution at steady state (Vss), and absolute oral bioavailability (F). The Cmax and time to reach Cmax (Tmax) were directly obtained from the plasma concentration versus time data."}, "[2]": {"experiment": "Intravenous pharmacokinetic study in rats", "assay_type": "in vivo", "method": "as §1, with “analysis. A noncompartmental analysis (WinNonlin ver. 3.1; Certara USA Inc., Princeton, NJ, USA) was performed to determine the following pharmacokinetic parameters: the AUCinf, area under plasma concentration versus time curve from time zero to the last sampling time (AUClast), t1/2, total body clearance (CL), apparent volume of distribution at steady state (Vss), and absolute oral bioavailability (F). The Cmax and time to reach Cmax (Tmax) were directly obtained from the plasma concentration versus time data.” for “analysis.”"}, "[3]": {"experiment": "Blood-to-plasma concentration ratio", "assay_type": "in vitro ADME", "settings": "Sprague-Dawley, rat, 37 °C, read-out: RB (blood-to-plasma concentration ratio)", "method": "The fractions of unbound acacetin in plasma (fuP), microsomes (fuMIC), SGF (fuSGF), and SIF(fuSIF) were measured using a rapid equilibrium dialysis device (Thermo Fisher Scientific, Inc., Waltham, MA, USA) as previously described with slight modifications. Briefly, 0.2 mL of the matrix spiked with acacetin (10 μM) was placed into the “sample” chamber, and 0.4 mL of PBS was placed into the adjacent “buffer” chamber. The fractions of unbound acacetin were calculated as the concentration ratio between the two chambers. The blood-to-plasma concentration ratio (RB) of acacetin was determined as described previously. Briefly, 1-mL blood spiked with acacetin (1 μM) was incubated at 37 °C for 30 min. The blood sample was centrifuged at 2000× g for 5 min to prepare the plasma sample. The concentrations of acacetin in the aforementioned plasma and buffer samples were measured using the LC-MS/MS method."}, "[4]": {"test_system": "rat CYP3A", "experiment": "Disappearance in RLM with CYP isoform-selective inhibitor KCZ", "assay_type": "in vitro ADME", "settings": "acacetin 20 μM, 10-μM KCZ, NADPH, 5 min", "method": "To investigate hepatic phase I enzymes- and UGT-dependent metabolism of acacetin, the disappearance rate of acacetin at concentrations of 1–200 µM in RLM was measured in the presence of both NADPH and UDPGA. The substrate (acacetin) concentration ((S); µM) versus the initial metabolic rate (V; nmol/min/mg protein) profiles were interpreted based on Michaelis–Menten kinetics, and relevant parameters were estimated via nonlinear regression analysis (GraphPad Prism ver. 5.01; GraphPad Software, San Diego, CA, USA) using the following Michaelis–Menten equation: V = Vmax× [S]/Km× [S] where Km and Vmax are the Michaelis–Menten constant and maximal metabolic rate, respectively. The unbound intrinsic metabolic clearance (CLint) was calculated as Vmax/(Km × fuMIC). Furthermore, the disappearance of acacetin (20 μM) in the absence or presence of specific CYP isoform-selective inhibitors in RLM was determined to study the hepatic CYP-mediated metabolism of acacetin. Microsomal incubation mixtures (total volume of 200 μL) were prepared as follows: RLM (0.5 mg/mL microsomal protein), 1 mM NADPH, 10 mM MgCl2, 50 mM potassium phosphate buffer, acacetin, with or without CYP isoform-selective inhibitors (10 μM NF for rat CYP1A, 10-μM SPZ for rat CYP2C, 10-μM QND for rat CYP2D, and 10-μM KCZ for rat CYP3A). […]"}},
  "note": "Like-named read-outs stand apart in the source and are kept apart here.",
  "data": [
    {"smiles": "COc1ccc(-c2cc(=O)c3c(O)cc(O)cc3o2)cc1", "note": "[acacetin, Acacetin]", "values": [
      {"measurement": "GI24h", "setting": "[1]; PO 100 mg/kg, GI tract at 24 h", "result": "29.3 ± 22.3 % of dose"},
      {"measurement": "Ae24h", "setting": "[1]; PO 100 mg/kg, urine 24 h", "result": "0.0601 ± 0.0634 % of dose"},
      {"measurement": "AUC(0-t)", "setting": "[1]; rat, plasma, PO 100 mg/kg", "result": 12.9, "unit": "ng·h/mL"},
      {"measurement": "Cmax", "setting": "[1]; rat, plasma, PO 100 mg/kg", "result": "52.1 ± 50.5", "unit": "ng/mL"},
      {"measurement": "Tmax", "setting": "[1]; rat, plasma, PO 100 mg/kg, median (range)", "result": 5, "unit": "min"},
      {"measurement": "bioavailability", "setting": "[1]; rat, urine, PO 100 mg/kg vs IV 10 mg/kg, from dose-normalized urinary excretion, read-out: F (absolute oral bioavailability)", "result": 2.34, "unit": "%"},
      {"measurement": "Urinary and GI (including biliary) excretion of unchanged acacetin", "setting": "[2]; IV 10 mg/kg", "result": "1.5–12.8 % of dose"},
      {"measurement": "GI24h", "setting": "[2]; IV 10 mg/kg, GI tract at 24 h", "result": "6.66 ± 5.34 % of dose"},
      {"measurement": "Ae24h", "setting": "[2]; IV 10 mg/kg, urine 24 h", "result": "2.50 ± 1.15 % of dose"},
      {"measurement": "clearance", "setting": "[2]; Sprague-Dawley, rat, blood (plasma CL divided by RB), IV 10 mg/kg, read-out: Total blood clearance (CL/RB)", "result": "191 ± 34", "unit": "mL/min/kg"},
      {"measurement": "clearance", "setting": "[2]; rat, IV 10 mg/kg, total plasma clearance, read-out: CL", "result": "199 ± 36", "unit": "mL/min/kg"},
      {"measurement": "AUC(0-inf)", "setting": "[2]; rat, plasma, IV 10 mg/kg", "result": 855, "unit": "ng·h/mL"},
      {"measurement": "half-life", "setting": "[2]; rat, plasma, IV 10 mg/kg", "result": "40.3 ± 7.2", "unit": "min"},
      {"measurement": "Vd", "setting": "[2]; rat, plasma, IV 10 mg/kg, read-out: Vss", "result": "2.22 ± 0.507", "unit": "L/kg"},
      {"measurement": "Hepatic extraction ratio", "setting": "[2]; speculated from blood clearance vs hepatic blood flow", "result": "~1"},
      {"measurement": "blood plasma ratio at 30 min, 1 μM", "setting": "[3]", "result": "~1"},
      {"measurement": "Reduction of relative disappearance rate in presence of KCZ", "setting": "[4]", "result": 43.7, "unit": "%"}
    ]}
  ]
}
